From patent US10093658B2, “Bifunctional compounds and use for reducing uric acid levels” (Acquist LLC, priority 2015, dated 2018)
Several values for one entry are separate records, joined by “and”; a condition that tells them apart may be missing. Equal entries are not always repeated. Where two headings read alike, the source gives them in different places.

Legend:
Xanthine oxidase = Xanthine oxidase (Homo sapiens (Human), UniProt P47989); test: Fluorescence-based xanthine oxidase activity assay; assay type: biochemical; settings: for XO inhibition (in words): qualitative statement
Sequence of Xanthine oxidase (P47989 whole entry, species assumed): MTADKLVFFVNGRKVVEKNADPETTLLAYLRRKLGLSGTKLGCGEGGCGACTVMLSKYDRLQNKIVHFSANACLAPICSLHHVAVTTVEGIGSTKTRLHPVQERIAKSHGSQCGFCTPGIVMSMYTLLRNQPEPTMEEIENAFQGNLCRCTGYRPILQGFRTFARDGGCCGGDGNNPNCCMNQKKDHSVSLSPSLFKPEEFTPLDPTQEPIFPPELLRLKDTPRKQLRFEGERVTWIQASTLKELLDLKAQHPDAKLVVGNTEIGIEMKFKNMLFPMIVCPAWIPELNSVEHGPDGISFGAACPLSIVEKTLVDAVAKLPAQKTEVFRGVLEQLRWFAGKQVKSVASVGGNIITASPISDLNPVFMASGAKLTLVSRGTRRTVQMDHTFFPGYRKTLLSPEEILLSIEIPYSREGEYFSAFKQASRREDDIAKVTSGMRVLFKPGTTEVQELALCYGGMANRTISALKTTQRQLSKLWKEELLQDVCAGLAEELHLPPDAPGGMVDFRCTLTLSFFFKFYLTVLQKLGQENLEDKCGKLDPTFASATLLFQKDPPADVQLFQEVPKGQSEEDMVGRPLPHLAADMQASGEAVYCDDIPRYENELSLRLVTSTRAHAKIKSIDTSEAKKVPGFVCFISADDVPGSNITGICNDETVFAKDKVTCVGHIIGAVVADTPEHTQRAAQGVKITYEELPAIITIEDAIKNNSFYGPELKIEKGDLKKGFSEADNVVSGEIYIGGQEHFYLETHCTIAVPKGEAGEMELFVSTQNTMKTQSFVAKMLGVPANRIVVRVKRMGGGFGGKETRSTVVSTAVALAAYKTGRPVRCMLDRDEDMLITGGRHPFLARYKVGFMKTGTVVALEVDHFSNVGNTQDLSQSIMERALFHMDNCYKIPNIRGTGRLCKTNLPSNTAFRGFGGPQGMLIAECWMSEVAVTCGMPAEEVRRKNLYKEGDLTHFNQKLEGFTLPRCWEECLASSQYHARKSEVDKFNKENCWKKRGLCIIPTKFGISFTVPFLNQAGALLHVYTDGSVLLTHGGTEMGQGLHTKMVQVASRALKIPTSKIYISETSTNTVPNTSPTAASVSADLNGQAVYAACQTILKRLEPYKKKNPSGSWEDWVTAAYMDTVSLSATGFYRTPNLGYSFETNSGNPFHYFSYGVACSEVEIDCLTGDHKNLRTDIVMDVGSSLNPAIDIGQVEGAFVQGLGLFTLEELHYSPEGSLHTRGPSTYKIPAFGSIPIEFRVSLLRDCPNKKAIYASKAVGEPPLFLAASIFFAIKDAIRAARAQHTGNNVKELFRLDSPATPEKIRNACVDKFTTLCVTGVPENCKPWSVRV

URAT1 (SLC22A12) = URAT1 (SLC22A12) (Homo sapiens (Human), UniProt Q96S37); test: URAT1 (SLC22A12) cellular uptake assay, 3H-orotate transport in stably transfected URAT-1/CHO cells; settings: for URAT1 inhibition (in words): qualitative statement
Sequence of URAT1 (SLC22A12) (Q96S37 whole entry): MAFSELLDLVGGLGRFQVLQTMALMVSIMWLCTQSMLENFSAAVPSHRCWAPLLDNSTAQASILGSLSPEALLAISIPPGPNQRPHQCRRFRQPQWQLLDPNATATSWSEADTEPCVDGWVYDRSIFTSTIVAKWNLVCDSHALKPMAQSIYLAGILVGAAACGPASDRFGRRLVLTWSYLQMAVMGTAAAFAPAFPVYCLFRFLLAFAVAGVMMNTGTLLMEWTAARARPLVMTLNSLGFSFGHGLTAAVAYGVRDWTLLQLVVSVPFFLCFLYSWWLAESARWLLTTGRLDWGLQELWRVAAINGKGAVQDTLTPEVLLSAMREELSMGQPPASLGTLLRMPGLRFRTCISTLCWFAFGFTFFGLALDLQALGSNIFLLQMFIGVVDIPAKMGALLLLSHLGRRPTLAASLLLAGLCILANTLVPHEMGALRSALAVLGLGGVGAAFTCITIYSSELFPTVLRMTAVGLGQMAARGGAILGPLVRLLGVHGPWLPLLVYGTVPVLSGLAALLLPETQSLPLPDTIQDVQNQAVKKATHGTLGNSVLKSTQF

[1] = fluorescence-based assay, triplicate, 10 concentrations, read-out: Xanthine Oxidase IC50
[2] = read-out: URAT1 IC50, URAT-1/CHO cells, 3H-orotate uptake, URAT1 assay as described herein

O=C(Nc1ccc(-c2nnn[nH]2)cc1)c1c(O)[nH]c(=S)[nH]c1=O [Formula (IIb), N-(4-(2H-tetrazol-5-yl)phenyl)-6-hydroxy-4-oxo-2-thioxo-1,2,3,4-tetrahydropyrimidine-5-carboxamide]
IC50 (Xanthine oxidase; [1]): 0.39 µM | IC50 (URAT1 (SLC22A12); [2]): 147 µM

O=C(Nc1ccc(-c2nnn[nH]2)cc1)c1c(O)[nH]c(=O)[nH]c1=O [Formula (IIa), N-(4-(2H-tetrazol-5-yl)phenyl)-6-hydroxy-2,4-dioxo-1,2,3,4-tetrahydropyrimidine-5-carboxamide]
IC50 (Xanthine oxidase; [1]): 0.68 µM | IC50 (URAT1 (SLC22A12); [2]): 9.54 µM

O=C(Nc1ccc(-c2cnn[nH]2)cc1)c1c(O)[nH]c(=O)[nH]c1=O [Formula (IIe), N-(4-(1H-1,2,3-triazol-5-yl)phenyl)-6-hydroxy-2,4-dioxo-1,2,3,4-tetrahydropyrimidine-5-carboxamide]
IC50 (Xanthine oxidase; [1]): 1.24 µM and 1.14 µM | IC50 (URAT1 (SLC22A12); [2]): 0.69 µM

O=C(Nc1ccc(NS(=O)(=O)C(F)(F)F)cc1)c1c(O)[nH]c(=O)[nH]c1=O [Formula (Ic), 6-hydroxy-2,4-dioxo-N-(4-(trifluoromethylsulfonamido)phenyl)-1,2,3,4-tetrahydropyrimidine-5-carboxamide]
IC50 (Xanthine oxidase; [1]): 201 µM

O=C(Nc1ccc(-n2cnnn2)cc1)c1c(O)[nH]c(=O)[nH]c1=O [Formula (IIc), N-(4-(1H-tetrazol-1-yl)phenyl)-6-hydroxy-2,4-dioxo-1,2,3,4-tetrahydropyrimidine-5-carboxamide]
IC50 (Xanthine oxidase; [1]): 20.7 µM

O=C(Nc1ccc(-c2cnn[nH]2)cc1)c1c(O)[nH]c(=S)[nH]c1=O [Formula (IIf), N-(4-(1H-1,2,3-triazol-5-yl)phenyl)-6-hydroxy-4-oxo-2-thioxo-1,2,3,4-tetrahydropyrimidine-5-carboxamide]
IC50 (Xanthine oxidase; [1]): 0.06 µM and 0.09 µM | XO inhibition (in words) (Xanthine oxidase): comparable to febuxostat | IC50 (URAT1 (SLC22A12); [2]): 11.1 µM

CS(=O)(=O)Nc1ccc(NC(=O)c2c(O)[nH]c(=O)[nH]c2=O)cc1 [Formula (Ib), 6-hydroxy-N-(4-(methylsulfonamido)phenyl)-2,4-dioxo-1,2,3,4-tetrahydropyrimidine-5-carboxamide]
IC50 (Xanthine oxidase; [1]): 87 µM

NS(=O)(=O)c1ccc(NC(=O)c2c(O)[nH]c(=O)[nH]c2=O)cc1 [Formula (Ia), 6-hydroxy-2,4-dioxo-N-(4-sulfamoylphenyl)-1,2,3,4-tetrahydropyrimidine-5-carboxamide]
IC50 (Xanthine oxidase; [1]): ≥ 300 µM

O=C(Nc1ccc(-c2noc(=O)[nH]2)cc1)c1c(O)[nH]c(=S)[nH]c1=O [Formula (Ig), 6-Hydroxy-4-oxo-N-(4-(5-oxo-4,5-dihydro-1,2,4-oxadiazol-3-yl)phenyl)-2-thioxo-1,2,3,4-tetrahydropyrimidine-5-carboxamide]
IC50 (Xanthine oxidase; [1]): 3.29 µM and 8.01 µM | XO inhibition (in words) (Xanthine oxidase): acceptable XO inhibitor | URAT1 inhibition (in words) (URAT1 (SLC22A12)): poor URAT1 inhibitor | IC50 (URAT1 (SLC22A12); [2]): > 150 µM

O=C(Nc1ccc(O)c(CO)c1)c1c(O)[nH]c(=O)[nH]c1=O [Formula (Id), 6-hydroxy-N-(4-hydroxy-3-(hydroxymethyl)phenyl)-2,4-dioxo-1,2,3,4-tetrahydropyrimidine-5-carboxamide]
IC50 (Xanthine oxidase): < 10 µM | IC50 (Xanthine oxidase; [1]): 3.66 µM | IC50 (URAT1 (SLC22A12)): < 10 µM | IC50 (URAT1 (SLC22A12); [2]): 7.26 µM

O=C(Nc1ccc2n[nH]nc2c1)c1c(O)[nH]c(=O)[nH]c1=O [Formula (IIIa), N-(1H-benzo[d][1,2,3]triazol-6-yl)-6-hydroxy-2,4-dioxo-1,2,3,4-tetrahydropyrimidine-5-carboxamide]
IC50 (Xanthine oxidase; [1]): 8.93 µM | IC50 (URAT1 (SLC22A12); [2]): 1.34 µM

O=C(Nc1ccc(-c2noc(=O)[nH]2)cc1)c1c(O)[nH]c(=O)[nH]c1=O [Formula (If), 6-hydroxy-2,4-dioxo-N-(4-(5-oxo-4,5-dihydro-1,2,4-oxadiazol-3-yl)phenyl)-1,2,3,4-tetrahydropyrimidine-5-carboxamide]
IC50 (Xanthine oxidase; [1]): 4.81 µM and 7.74 µM | XO inhibition (in words) (Xanthine oxidase): active against both targets | URAT1 inhibition (in words) (URAT1 (SLC22A12)): active against both targets | IC50 (URAT1 (SLC22A12); [2]): 7.6 µM
